Test results published in US4921953A, “Cephalosporin derivatives” (Taisho Pharmaceutical Co., Ltd., priority 1988, dated 1990).
Values after ≈ are worked out from the molar mass of the structure shown. Structures can show the parent of a compound that is named as a salt. Where two headings read alike, the source gives them in different places.

Key:
in vivo = assay: in vivo; design: species or system male Japanese native strain white rabbits; conditions: blood, rabbit, oral, 20 mg/kg suspended in 5% gum arabic, bioassay (Bacillus luteus S1101)
Description: Three male Japanese native strain white rabbits weighing 2.50 to 3.15 kg for each group were administered orally with the test compounds, and the change of the concentration of the compound in blood was measured.
Dosage of the test compound: 20 mg/kg (suspended in 5% gum arabic).
Quantitative method: Bioassy method (test bacterium: Bacillus luteus S1101).

[1] = test system: Staphylococcus aureus 209P-JC; assay: antibacterial activity, agar plate dilution method (MIC); format: cell-based; conditions: read-out: Minimum Inhibitory Concentration (MIC)
Description: (§1) The antibacterial activity against various bacteria was measured by the agar plate dilution method (inoculum size: 10^6 cells/ml), and the results are shown in the following Table 1.

Eschelichia coli A13 = assay: as above; format: cell-based; conditions: read-out: Minimum Inhibitory Concentration (MIC)
Description: as §1

[2] = test system: Staphylococcus aureus K-1; assay: as above; format: cell-based
Description: as §1

[3] = test system: Entercococcus faecalis ATCC 8043; assay: as above; format: cell-based; conditions: read-out: Minimum Inhibitory Concentration (MIC)
Description: as §1

[4] = test system: Staphylococcus epidermidis sp-al-1; assay: as above; format: cell-based
Description: as §1

[5] = test system: Eschelichia coli NIHJ JC-2; assay: as above; format: cell-based; conditions: read-out: Minimum Inhibitory Concentration (MIC)
Description: as §1

[6] = Staphylococcus aureus, K1, read-out: Minimum Inhibitory Concentration (MIC)
[7] = Staphylococcus epidermidis, SPAL1, read-out: Minimum Inhibitory Concentration (MIC)
[8] = Staphylococcus aureus 209P-JC, inoculum size: 10^6 cells/ml
[9] = SPAL1, Staphylococcus epidermidis sp-al-1, inoculum size: 10^6 cells/ml, read-out: Minimum Inhibitory Concentration (MIC)
[10] = Eschelichia coli NIHJ JC-2, inoculum size: 10^6 cells/ml
[11] = Eschelichia coli A13, inoculum size: 10^6 cells/ml
[12] = K1, Staphylococcus aureus K-1, inoculum size: 10^6 cells/ml, read-out: Minimum Inhibitory Concentration (MIC)
[13] = Entercococcus faecalis ATCC 8043, inoculum size: 10^6 cells/ml

Q: Which concentration at 4 h (in vivo; Four Hours after administration) does the source give for N#CCSC1=C(C(=O)[O-])N2C(=O)[C@@H](NC(=O)/C(=N\O)c3csc(N)n3)[C@H]2SC1.[Na+] here?
A: The concentration at 4 h was 2500 ng/mL.

Q: And the concentration at 1 h (in vivo; One Hour after administration)?
A: The concentration at 1 h was 2500 ng/mL.

Q: What about the concentration at 2 h (in vivo; Two Hours after administration) of the same compound?
A: Its concentration at 2 h is 4000 ng/mL.

Q: And the MIC ([1]; Staphylococcus aureus, 209P)?
A: The MIC was 0.2 µg/mL.

Q: And the MIC (Eschelichia coli A13)?
A: The MIC was 1.56 µg/mL.

Q: And the MIC [2, 6]?
A: Its MIC is 0.78 µg/mL.

Q: What about the MIC [3] of the same compound?
A: Its MIC is 1.56 µg/mL.

Q: And the MIC [4, 7]?
A: The MIC was 0.78 µg/mL.

Q: What about the MIC [5] of the same compound?
A: The MIC was 0.2 µg/mL.

Q: With C=CCSC1=C(C(=O)O)N2C(=O)[C@@H](NC(=O)/C(=N\O)c3csc(N)n3)[C@H]2SC1 [C] as the compound, how does the MIC [1, 8] read?
A: The MIC was 0.2 µg/mL (≈ 0.453 µM).

Q: What about the MIC (Eschelichia coli A13) of the same compound?
A: Its MIC is 6.25 µg/mL (≈ 14.2 µM).

Q: And the MIC [2, 6]?
A: Its MIC is 6.25 µg/mL (≈ 14.2 µM).

Q: What about the MIC [3] of the same compound?
A: Its MIC is 12.5 µg/mL (≈ 28.3 µM).

Q: What about the MIC [4, 9] of the same compound?
A: Its MIC is 0.39 µg/mL (≈ 0.883 µM).

Q: What about the MIC [5, 10] of the same compound?
A: Its MIC is 0.2 µg/mL (≈ 0.453 µM).

Q: Which MIC ([1]; Staphylococcus aureus, 209P) does the source give for CC1=C(C(=O)O)N2C(=O)[C@@H](NC(=O)[C@H](N)c3ccccc3)[C@H]2SC1 [D, Cephalexin, reference compound] here?
A: The MIC was 0.78 µg/mL (≈ 2.25 µM).

Q: And the MIC (Eschelichia coli A13)?
A: Its MIC is > 100 µg/mL.

Q: And the MIC [2, 6]?
A: Its MIC is > 100 µg/mL.

Q: And the MIC [3]?
A: The MIC was 100 µg/mL (≈ 288 µM).

Q: And the MIC [4, 7]?
A: The MIC was 1.56 µg/mL (≈ 4.49 µM).

Q: What about the MIC [5] of the same compound?
A: The MIC was 6.25 µg/mL (≈ 18 µM).

Q: Which results are given for Nc1nc(/C(=N/O)C(=O)N[C@@H]2C(=O)N3C(C(=O)O)=C(SCCF)CS[C@H]23)cs1 [B]?
A: MIC [1, 8]: 0.39 µg/mL (≈ 0.872 µM); MIC (Eschelichia coli A13; [11]): 6.25 µg/mL (≈ 14 µM); MIC [2, 12]: 0.78 µg/mL (≈ 1.74 µM); MIC [3, 13]: 25 µg/mL (≈ 55.9 µM); MIC [4, 9]: 0.78 µg/mL (≈ 1.74 µM); MIC [5, 10]: 0.39 µg/mL (≈ 0.872 µM)

Q: Which MIC ([1]; Staphylococcus aureus, 209P) does the source give for C=CC1=C(C(=O)O)N2C(=O)[C@@H](NC(=O)/C(=N\OCC(=O)O)c3csc(N)n3)[C@H]2SC1 [E, Cefixime sodium salt, reference compound] here?
A: The MIC was 12.5 µg/mL.

Q: And the MIC (Eschelichia coli A13; [11])?
A: Its MIC is > 100 µg/mL.

Q: What about the MIC [2, 12] of the same compound?
A: The MIC was > 100 µg/mL.

Q: What about the MIC [3, 13] of the same compound?
A: The MIC was > 100 µg/mL.

Q: What about the MIC [4, 9] of the same compound?
A: The MIC was 50 µg/mL.

Q: And the MIC [5]?
A: The MIC was 0.39 µg/mL.
